Measured values taken from ChEMBL document CHEMBL1141370, “Biologically active triterpenoid saponins from Ardisia japonica” (J Nat Prod, 2007).

Assays:
Assay type in all cases: cell-based
[1] = Cytotoxicity against human KATO3 cell line by MTT assay
[2] = system: A549; test: Cytotoxicity against human A549 cell line by MTT assay
[3] = system: HL-60; test: Cytotoxicity against human HL60 cell line by MTT assay

Compound `CC1(C)[C@@H](O[C@@H]2OC[C@H](O[C@@H]3O[C@H](CO)[C@@H](O)[C@H](O)[C@H]3O[C@@H]3OC[C@@H](O)[C@H](O)[C@H]3O)[C@H](O)[C@H]2O)CC[C@]2(C)[C@H]3CC[C@]45OC[C@@]6(CC[C@](C)(C=O)C[C@H]64)[C@H](O)C[C@@]5(C)[C@]3(C)CC[C@@H]12` [PRIMULANIN] has an IC50 [1] of 3.3 µM, an IC50 [2] of 27.7 µM and an IC50 [3] of 24.7 µM.
